Measurements taken from patent US10905691B2, “Use of triazolo(4,5-d)pyrimidine derivatives for prevention and treatment of bacterial infection” (Universite de Liege, priority 2016, dated 2021).

Columns and labels:
Assay type in all cases: cell-based
[1] = tested on: Escherichia coli (ATCC 8739); assay: MIC determination with or without polymyxin B nonapeptide (PMBN); conditions: for MIC: Escherichia coli, ATCC8739, in presence of 40 μg/ml PMBN; for inhibition of E. coli growth: taken alone, concentrations up to 15 μg/ml
Experimental: Determination of Minimal Inhibitory Concentration (MIC) and Minimal Bactericidal Concentration (MBC) of Triafluocyl (Cayman Chemical, Item No. 15425) in presence of polymyxin B nonapeptide (PMBN) (Sigma-Aldrich Merk, Item No. P2076) against Escherichia coli (ATCC 8739). […] A single colony grown on a Luria-Bertani Agar (LB) plate was resuspended and cultured in LB medium overnight (O/N) in aerobic conditions (37° C. with 220 rpm shaking), next day a 1:50 inoculum in Mueller-Hinton broth (MHB) is incubated in aerobic conditions for 1 h30 (OD=0.08-0.1) and an inoculum corresponding to 3×10^6 colony forming unit (CFU)/ml, is incubated in presence or absence of different concentrations of Triafluocyl in 1% DMSO with or without 40 μg/ml Polymyxin B nonapeptide (PMBN) for 18 hr in aerobic conditions (37° C. with 220 rpm shaking). Growth of Escherichia coli in 7 conditions depicted in FIG. 11 is evaluated by reading the OD of each culture at 600 nm (OD600) in a spectrophotometer (Victor 3-Perkin Elmer). Determination of Minimal Inhibitory Concentration (MIC) and Minimal Bactericidal Concentration (MBC) of Fluometacyl in presence of polymyxin B nonapeptide (PMBN) (Sigma-Aldrich Merk, Item No. P2076) against Escherichia coli (ATCC 8739). The Minimal Inhibitory Concentration (MIC) represents the concentration, in a liquid culture, at which there is no visible growth of bacteria (no pellet or cloudiness), i.e. ΔOD at 600 nm equal to zero wherein ΔOD is the difference between the resulting optical density (OD) with the molecule together with PMBN, and the optical density (OD) of the blank (blank is the medium alone). A single colony grown on a Luria-Bertani Agar (LB) plate is resuspended and cultured in LB medium overnight (O/N) in aerobic conditions (37° C. with 220 rpm shaking), next day a 1:50 inoculum in Mueller-Hinton broth (MHB) is incubated in aerobic conditions for 1 h30 (OD=0.08-0.1) and an inoculum corresponding to 3×10^6 colony forming unit (CFU)/ml is incubated in presence or absence of different concentrations of Fluometacyl in 1% DMSO (vehicle) with or without 40 μg/ml Polymyxin B nonapeptide (PMBN) for 18 hr in aerobic conditions (37° C. with 220 rpm shaking). Growth of bacteria in the 7 individual cultures (FIG. 12A) is evaluated by reading the OD of each culture at 600 nm (OD600) in a spectrophotometer (Victor 3-Perkin Elmer).

[2] = tested on: Escherichia coli (ATCC 8739); assay: MBC determination with C12(ω7)Kβ12 (OAK); conditions: ATCC8739, in presence of 5 μg/ml OAK, read-out: Minimal Bactericidal Concentration (MBC)
Experimental: Viable count in the liquid culture is estimated by counting the colony forming units (c.f.u.) on a Luria-Bertani (LB) agar plate—after 24 h incubation at 37° C.—and calculating the c.f.u. per milliliter of the liquid culture (c.f.u./ml).
The Minimal Bactericidal Concentration (MBC) of Triafluocyl in presence of 5 μg/ml OAK against Escherichia coli (ATCC 8739) is equal to 10 μg/ml (FIG. 13B).
The Minimal Bactericidal Concentration (MBC) of Fluometacyl in presence of 5 μg/ml OAK against Escherichia coli (ATCC 8739) is equal to 5 μg/ml (FIG. 14B).

[3] = tested on: Pseudomonas aeruginosa (ATCC 27853); assay: MIC determination with or without C12(ω7)Kβ12 (OAK); conditions: for MIC: Pseudomonas aeruginosa, ATCC27853, in presence of 10 μg/ml OAK (C12(ω7)Kβ12)
Experimental: Determination of Minimal Inhibitory Concentration (MIC) of Triafluocyl (Cayman Chemical, Item No. 15425) in presence of C12(ω7)Kβ12 (provided by Custom synthesis Biomers Germany) against Pseudomonas aeruginosa (ATCC 27853).
A single colony of Pseudomonas aeruginosa grown on a Tryptic Soy agar (TSA) plate is resuspended and cultured in Tryptic Soy Broth (TSB) medium overnight (O/N) in aerobic conditions (37° C. with 190 rpm shaking in New Brunswick Innova 4200 Incubator Shaker). Next day the resulting inoculum is diluted again at 1:100 in Mueller-Hinton broth (MHB) and then incubated in aerobic conditions for 1 h30 (OD=0.08-0.1) to reach an exponential phase in the grown curve. A resulting inoculum corresponding to around 5×10^5 colony forming unit (CFU)/ml, is further incubated in presence or absence of different concentrations (10 and 20 μg/ml) of Triafluocyl in 2% DMSO with or without C12(ω7)Kβ12 for 18 hr in aerobic conditions (37° C. with 190 rpm shaking in New Brunswick Innova 4200 Incubator Shaker). Growth of Pseudomonas aeruginosa in each condition depicted in FIG. 15A is evaluated by reading the OD of each culture at 600 nm (OD600) in a spectrophotometer (Fisher Scientific, cell density meter model 40).
Determination of Minimal Inhibitory Concentration (MIC) of Fluometacyl (prepared according to WO99/0514) in presence of C12(ω7)Kβ12 (provided by Biomers.net Germany) against Pseudomonas aeruginosa (ATCC 27853). The C12(ω7)Kβ12 was synthesized by solid-phase method as described by I. Radzishevsky in Antimicrobial Agents and Chemotherapy, May 2007 (1753-1759) (https://aac.asm.org/content/51/5/1753)
A single colony of Pseudomonas aeruginosa grown on a Tryptic Soy agar (TSA) plate is resuspended and cultured in Tryptic Soy Broth (TSB) medium overnight (O/N) in aerobic conditions (37° C. with 220 rpm shaking in New Brunswick Innova 4200 Incubator Shaker). Next day the resulting inoculum is diluted again at 1:100 in Mueller-Hinton broth (MHB) and then incubated in aerobic conditions for 1 h30 (OD=0.08-0.1) to reach an exponential phase in the grown curve. A resulting inoculum corresponding to around 5×10^5 colony forming unit (CFU)/ml, is further incubated in presence or absence of different concentrations (10 and 20 μg/ml) of Fluometacyl in 2% DMSO with or without C12(ω7)Kβ12 for 18 hr in aerobic conditions (37° C. with 190 rpm shaking in New Brunswick Innova 4200 Incubator Shaker). Growth of Pseudomonas aeruginosa in each condition depicted in FIG. 16A is evaluated by reading the Optical Density of each culture at 600 nm (OD600) in a spectrophotometer (Fisher Scientific, cell density meter model 40).

SMILES | MIC [1] [µg/mL] | inhibition of E. coli growth [1] | MBC [2] [µg/mL] | MIC [3] [µg/mL] | inhibition of P. aeruginosa growth ([3]; taken alone at a concentration of 10 μg/ml) | inhibition of P. aeruginosa growth ([3]; taken alone at a concentration of 20 μg/ml)
CCCSc1nc(N[C@@H]2C[C@H]2c2ccc(F)c(F)c2)c2nnn([C@@H]3C[C@H](OCCO)[C@@H](O)[C@H]3O)c2n1 [Triafluocyl, (1S,2S,3R,5S)-3-[7-[(1R,2S)-2-(3,4-difluorophenyl)cyclopropylamino]-5-(propylthio)-3H-[1,2,3]-triazolo[4,5-d]pyrimidin-3-yl]-5-(2-hydroxyethoxy)-1,2-cyclopentanediol] | 5 | unable to inhibit E. coli growth | 10 | 10 | unable to inhibit P. aeruginosa growth | 
CCCSc1nc(N[C@@H]2C[C@H]2c2ccc(F)c(F)c2)c2nnn([C@@H]3C[C@H](O)[C@@H](O)[C@H]3O)c2n1 [Fluometacyl, (1S,2R,3S,4R)-4-[7-[[(1R,2S)-2-(3,4-Difluorophenyl)cyclopropyl]amino]-5-(propylthio)-3H-1,2,3-triazolo[4,5-d]pyrimidin-3-yl]-1,2,3-cyclopentanetriol] | 5 | unable to inhibit E. coli growth | 5 | 20 |  | unable to inhibit P. aeruginosa growth
